Experimental data taken from US8946238B2, “Pyrazolo[1,5-A]pyrimidines as antiviral agents” (Gilead Sciences, Inc., priority 2011, dated 2015).

test system: RSV strain A2; assay: RSV antiviral cytoprotection assay in Hep2 cells (RSV-induced cytopathic effect, Cell TiterGlo); type: cell-based, Respiratory Syncytial Virus (RSV); conditions: human respiratory syncytial virus, HEp-2, 0.5 μM compound; RSV A2-infected Hep2 cells; % inhibition calculated from 4-parameter dose response curve, normalized to 0% and 100%; read-out: Percent inhibition at 0.5 μM
Description: Antiviral activity against RSV was determined using an in vitro cytoprotection assay in Hep2 cells. […] The method used was similar to methods previously described in published literature (Chapman et al., Antimicrob Agents Chemother. 2007, 51(9):3346-53.)
Hep2 cells were obtained from ATCC (Manassas, VI) and maintained in MEM media supplemented with 10% fetal bovine serum and penicillin/streptomycin. Cells were passaged twice a week and kept at subconfluent stage. Commercial stock of RSV strain A2 (Advanced Biotechnologies, Columbia, Md.) was titered before compound testing to determine the appropriate dilution of the virus stock that generated desirable cytopathic effect in Hep2 cells.
For antiviral tests, Hep2 cells were seeded into 96-well plates 24 hours before the assay at a density of 3,000 cells/well. On a separate 96 well plate, compounds to be tested were serially diluted in cell culture media. Eight concentrations in 3-fold serial dilution increments were prepared for each tested compound and 100 uL/well of each dilution was transferred in duplicate onto plates with seeded Hep2 cells. Subsequently, appropriate dilution of virus stock previously determined by titration was prepared in cell culture media and 100 uL/well was added to test plates containing cells and serially diluted compounds. Each plate included three wells of infected untreated cells and three wells of uninfected cells that served as 0% and 100% virus inhibition control, respectively. Following the infection with RSV, testing plates were incubated for 4 days in a tissue culture incubator. After the incubation, RSV-induced cytopathic effect was determined using a Cell TiterGlo reagent (Promega, Madison, Wis.) followed by a luminescence read-out. The percentage inhibition was calculated for each tested concentration relative to the 0% and 100% inhibition controls and the EC50 value for each compound was determined by non-linear regression as a concentration inhibiting the RSV-induced cytopathic effect by 50%. Ribavirin (purchased from Sigma, St. Louis, Mo.) was used as a positive control for antiviral activity.
Compounds were also tested for antiviral activity against RSV in Hep2 cells using a 384 well format. Compounds were diluted in DMSO using a 10-step serial dilution in 3-fold increments via automation in 4 adjacent replicates each. Eight compounds were tested per dilution plate. 0.4 uL of diluted compounds were then stamped via Biomek into 384-well plates (Nunc 142761 or 164730 w/lid 264616) containing 20 μL of media (Mediatech Inc. MEM supplemented with Glutamine, 10% FBS and Pen/Strep). DMSO and a suitable positive control compound, such as 80 μM GS-329467 or 10 μM 427346 was used for the 100% and 0% cell killing controls, respectively.
Hep2 cells (1.0×10^5 cells/ml) were prepared as above in batch to at least 40 mls excess of the number of sample plates (8 mls cell mix per plate) and infected with vendor supplied (ABI) RSV strain A2 to arrive at an MOI of 1:1000 (virus:cell #) or 1:3000 (vol virus: cell vol). Immediately after addition of virus, the RSV infected Hep2 cell suspension was added to each stamped 384-well plate at 20 μl per well using a uFlow dispenser, giving a final volume of 40 μL/well, each with 2000 infected cells. The plates were then incubated for 5 days at 37° C. and 5% CO2. Following incubation, the plates were equilibrated to room temperature in a biosafety cabinet hood for 1.5 hrs and 40 μL of Cell-Titer Glo viability reagent (Promega) was added to each well via uFlow. Following a10-20 minute incubation, the plates were read using an EnVision or Victor Luminescence plate reader (Perkin-Elmer). The data was then uploaded and analyzed on the Bioinformatics portal under the RSV Cell Infectivity and 8-plate EC50-Hep2-384 or 8-plate EC50-Hep2-Envision protocols. […]

Compound | inhibition at 0.5 µM [%]
Cc1cn2nc([C@@H]3CCCCN3C(=O)c3cc(Cl)ccc3NS(C)(=O)=O)cc2nc1NCC(C)N (stereo partly shown) [Compound 1] | 100
Cc1cn2nc([C@@H]3CCCCN3C(=O)c3cc(Cl)ccc3NS(C)(=O)=O)cc2nc1NCC1(N)CC1 [Compound 2] | 100
Cc1cn2nc([C@@H]3CCCCN3C(=O)c3cc(Cl)ccc3NS(C)(=O)=O)cc2nc1NCC(N)c1ccccc1 (stereo partly shown) [Compound 3] | 100
Cc1cn2nc([C@@H]3CCCCN3C(=O)c3cc(Cl)ccc3NS(C)(=O)=O)cc2nc1N1C[C@@H](N)[C@H](c2ccccc2)C1 [Compound 4] | 100
Cc1cn2nc([C@@H]3CCCCN3C(=O)c3cc(Cl)ccc3NS(C)(=O)=O)cc2nc1NC(C)CN (stereo partly shown) [Compound 5] | 100
Cc1cn2nc([C@@H]3CCCCN3C(=O)c3cc(Cl)ccc3NS(C)(=O)=O)cc2nc1N[C@H]1C[C@@H](N)C1 [Compound 6] | 100
Cc1cn2nc([C@@H]3CCCCN3C(=O)c3cc(Cl)ccc3NS(C)(=O)=O)cc2nc1N1CCN[C@@H](C)C1 [Compound 7] | 100
Cc1cn2nc([C@@H]3CCCCN3C(=O)c3cc(Cl)ccc3NS(C)(=O)=O)cc2nc1NC(CN)c1ccccc1 (stereo partly shown) [Compound 8] | 90
COC(=O)[C@H]1C[C@H](N)CN1c1nc2cc([C@@H]3CCCCN3C(=O)c3cc(Cl)ccc3NS(C)(=O)=O)nn2cc1C [Compound 9] | 99
CN[C@@H]1CCN(c2nc3cc([C@@H]4CCCCN4C(=O)c4cc(Cl)ccc4NS(C)(=O)=O)nn3cc2C)C1 [Compound 10] | 95
CN[C@H]1CCN(c2nc3cc([C@@H]4CCCCN4C(=O)c4cc(Cl)ccc4NS(C)(=O)=O)nn3cc2C)C1 [Compound 11] | 92
COC(=O)[C@H]1C[C@@H](N)CN1c1nc2cc([C@@H]3CCCCN3C(=O)c3cc(Cl)ccc3NS(C)(=O)=O)nn2cc1C [Compound 12] | 89
Cc1cn2nc([C@@H]3CCCCN3C(=O)c3cc(Cl)ccc3NS(C)(=O)=O)cc2nc1N1CCN[C@@H](COCc2ccccc2)C1 [Compound 13] | 82
Cc1cn2nc([C@@H]3CCCCN3C(=O)c3cc(Cl)ccc3NS(C)(=O)=O)cc2nc1N1C[C@H](N)C[C@@H]1C(=O)O [Compound 14] | 81
Cc1cn2nc([C@@H]3CCCCN3C(=O)c3cc(Cl)ccc3NS(C)(=O)=O)cc2nc1NCC1CCCNC1 (stereo partly shown) [Compound 15] | 82
Cc1cn2nc([C@@H]3CCCCN3C(=O)c3cc(Cl)ccc3NS(C)(=O)=O)cc2nc1N1C[C@@H]2CCN[C@@H]2C1 [Compound 16] | 71
Cc1cn2nc([C@@H]3CCCCN3C(=O)c3cc(Cl)ccc3NS(C)(=O)=O)cc2nc1N1CCN[C@H](Cc2ccccc2)C1 [Compound 17] | 70
Cc1cn2nc([C@@H]3CCCCN3C(=O)c3cc(Cl)ccc3NS(C)(=O)=O)cc2nc1N1C[C@@H]2C[C@H]1CN2 [Compound 18] | 70
Cc1cn2nc([C@@H]3CCCCN3C(=O)c3cc(Cl)ccc3NS(C)(=O)=O)cc2nc1N1C[C@@H](N)C[C@@H]1C(=O)O [Compound 19] | 70
Cc1cn2nc([C@@H]3CCCCN3C(=O)c3cc(Cl)ccc3NS(C)(=O)=O)cc2nc1N1CC(C)NC(C)C1 (stereo partly shown) [Compound 20] | 63
Cc1cn2nc([C@@H]3CCCCN3C(=O)c3cc(Cl)ccc3NS(C)(=O)=O)cc2nc1N[C@H]1C[C@H]2C[C@@H]1CN2 [Compound 21] | 58
Cc1cn2nc([C@@H]3CCCCN3C(=O)c3cc(Cl)ccc3NS(C)(=O)=O)cc2nc1N1CCN[C@@H](C(C)C)C1 [Compound 22] | 55
CNC(=O)[C@H]1CN(c2nc3cc([C@@H]4CCCCN4C(=O)c4cc(Cl)ccc4NS(C)(=O)=O)nn3cc2C)CCN1 [Compound 23] | 48
Cc1cn2nc([C@@H]3CCCCN3C(=O)c3cc(Cl)ccc3NS(C)(=O)=O)cc2nc1N1C[C@H](C)NC[C@H]1C [Compound 24] | 30
Cc1cn2nc([C@@H]3CCCCN3C(=O)c3cccc(F)c3C)cc2nc1N1CC[C@H](N)C1 [Compound 25] | 100

Compound | inhibition at 0.5 µM [%]
Cc1cn2nc([C@@H]3CCCCN3C(=O)c3ccc(F)cn3)cc2nc1N1CC[C@H](N)C1 [Compound 26] | 84
COc1ccccc1C(=O)N1CCCC[C@H]1c1cc2nc(N3CC[C@H](N)C3)c(C)cn2n1 [Compound 27] | 100
Cc1cn2nc([C@@H]3CCCCN3C(=O)c3cc(F)c(F)c(Cl)c3F)cc2nc1N1CC[C@H](N)C1 [Compound 28] | 100
COc1ccc(S(N)(=O)=O)cc1C(=O)N1CCCC[C@H]1c1cc2nc(N3CC[C@H](N)C3)c(C)cn2n1 [Compound 29] | 71
Cc1cn2nc([C@@H]3CCCCN3C(=O)c3cccc(F)c3Cl)cc2nc1N1CC[C@H](N)C1 [Compound 30] | 100
Cc1cn2nc([C@@H]3CCCCN3C(=O)c3cccc4c3CCCC4)cc2nc1N1CC[C@H](N)C1 [Compound 31] | 100
Cc1cn2nc([C@@H]3CCCCN3C(=O)c3ccc(C#N)cc3F)cc2nc1N1CC[C@H](N)C1 [Compound 32] | 79
Cc1cn2nc([C@@H]3CCCCN3C(=O)c3ccc(C)c(F)c3F)cc2nc1N1CC[C@H](N)C1 [Compound 33] | 99
COc1ccc(C(C)(C)C)cc1C(=O)N1CCCC[C@H]1c1cc2nc(N3CC[C@H](N)C3)c(C)cn2n1 [Compound 34] | 13
Cc1ccc(C(F)(F)F)c(C(=O)N2CCCC[C@H]2c2cc3nc(N4CC[C@H](N)C4)c(C)cn3n2)c1 [Compound 35] | 100
Cc1ccc(C(=O)N2CCCC[C@H]2c2cc3nc(N4CC[C@H](N)C4)c(C)cn3n2)c(C(F)(F)F)c1 [Compound 36] | 98
Cc1cn2nc([C@@H]3CCCCN3C(=O)c3cc(F)ccc3OC(F)(F)F)cc2nc1N1CC[C@H](N)C1 [Compound 37] | 100
Cc1cn2nc([C@@H]3CCCCN3C(=O)c3cccc4cn[nH]c34)cc2nc1N1CC[C@H](N)C1 [Compound 38] | 100
Cc1cn2nc([C@@H]3CCCCN3C(=O)c3c(F)ccc(C)c3F)cc2nc1N1CC[C@H](N)C1 [Compound 39] | 100
Cc1cn2nc([C@@H]3CCCCN3C(=O)c3ccc4cnccc4n3)cc2nc1N1CC[C@H](N)C1 [Compound 41] | 4
Cc1cn2nc([C@@H]3CCCCN3C(=O)c3ccc(-c4ccccc4)cn3)cc2nc1N1CC[C@H](N)C1 [Compound 42] | 9
Cc1cn2nc([C@@H]3CCCCN3C(=O)c3cccc4[nH]cnc34)cc2nc1N1CC[C@H](N)C1 [Compound 43] | 88
Cc1cn2nc([C@@H]3CCCCN3C(=O)c3cccc(F)c3C(F)(F)F)cc2nc1N1CC[C@H](N)C1 [Compound 44] | 100
Cc1cn2nc([C@@H]3CCCCN3C(=O)c3ccccc3S(N)(=O)=O)cc2nc1N1CC[C@H](N)C1 [Compound 45] | 45
Cc1cn2nc([C@@H]3CCCCN3C(=O)c3cccc4ccncc34)cc2nc1N1CC[C@H](N)C1 [Compound 46] | 100
Cc1noc(-c2ccccc2C(=O)N2CCCC[C@H]2c2cc3nc(N4CC[C@H](N)C4)c(C)cn3n2)n1 [Compound 47] | 90
Cc1cn2nc([C@@H]3CCCCN3C(=O)c3cc(F)cc4c3OCOC4)cc2nc1N1CC[C@H](N)C1 [Compound 48] | 100
Cc1ccc(C(=O)N2CCCC[C@H]2c2cc3nc(N4CC[C@H](N)C4)c(C)cn3n2)c(Cl)c1 [Compound 49] | 99
Cc1cn2nc([C@@H]3CCCCN3C(=O)c3ccc4cccnc4n3)cc2nc1N1CC[C@H](N)C1 [Compound 50] | 15
